Experiments:
[1] = molecular target: T1, FXR ligand binding domain (Homo sapiens, UniProt Q96RI1); test: Mammalian One Hybrid (M1H) assay, Gal4 promoter driven transactivation in HEK293 cells; format: cell-based; settings: Gal4-FXR-LBD luciferase reporter, 16 h
T1 construct: expressed in transfected cells; host or cells: HEK293 cells, transiently transfected with pCMV-BD-FXR-LBD, pFR-Luc and pRL-CMV
T1 sequence (Q96RI1 187-472 isoform Q96RI1-2): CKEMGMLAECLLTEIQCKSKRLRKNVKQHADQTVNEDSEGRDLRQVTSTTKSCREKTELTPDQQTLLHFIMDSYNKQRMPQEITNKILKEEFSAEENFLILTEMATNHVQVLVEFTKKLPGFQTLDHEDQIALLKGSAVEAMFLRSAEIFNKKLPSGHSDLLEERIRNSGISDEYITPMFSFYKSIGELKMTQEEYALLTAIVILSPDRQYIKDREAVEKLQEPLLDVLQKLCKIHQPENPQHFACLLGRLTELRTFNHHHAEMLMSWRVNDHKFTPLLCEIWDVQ
How it was run: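 HEK293 cells were transiently co-transfected with Gal4-DBD fused to the human FXR LBD (aa 187-472, NM_005123), a 5×GAL4-site firefly luciferase reporter and CMV-Renilla control. Compounds were added 2-4 h post-transfection (vehicle ≤0.1%) in charcoal/dextran-stripped FBS medium for 16 h. Firefly and Renilla luciferase were read sequentially, in triplicate.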

[2] = molecular target: T2, human FXR alpha ligand binding domain (Homo sapiens, UniProt Q96RI1); test: FRET activity assay (ligand mediated cofactor peptide interaction, LANCE); format: biochemical; settings: GST-FXR-LBD / biotinylated SRC-1 peptide (676-700), read-out: F EC50
T2 construct: made in house; host or cells: E. coli BL21(DE3), vector pDEST15
T2 sequence (Q96RI1 187-472 isoform Q96RI1-2): T1 sequence (Q96RI1 187-472 isoform Q96RI1-2)
How it was run: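 GST-tagged FXR LBD (aa 187–472, E. coli-expressed) at 20–60 ng/well with 200–600 nM biotinylated SRC-1 peptide (676–700), streptavidin-APC and Eu anti-GST in Tris pH 7.5 buffer, 1% DMSO, equilibrated 1 h dark at room temperature. TR-FRET read as 665/615 nm ratio; agonists raise signal above basal.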

Row | Structure (SMILES) | EC50 [1] [µM] | EC50 [2] [µM]
1 | O=C(O)c1nsc2ccc([C@]3(O)CC[C@@H](OCc4c(-c5c(Cl)cccc5Cl)noc4C4CC4)CC3)cc12 [Example 33, 5-((1s,4s)-4-((5-Cyclopropyl-3-(2,6-dichlorophenyl)isoxazol-4-yl)methoxy)-1-hydroxycyclohexyl)benzo[d]isothiazole-3-carboxylic acid] | 2.7 | 0.12
2 | CC(C)n1nc(C(=O)O)c2ccc([C@]3(O)CC[C@@H](OCc4c(-c5c(Cl)cccc5Cl)noc4C4CC4)CC3)cc21 [Example 11-45, 6-((1s,4s)-4-((5-Cyclopropyl-3-(2,6-dichlorophenyl)isoxazol-4-yl)methoxy)-1-hydroxycyclohexyl)-1-isopropyl-1H-indazole-3-carboxylic acid] | 0.14 | 0.007
3 | CC(C)c1onc(-c2c(Cl)cccc2Cl)c1CO[C@@H]1C[C@H]2CC[C@@H](C1)[C@]2(O)c1nc2c(F)cc(C(=O)O)cc2s1 [Example 11-51, 2-((1R,3s,5S,8r)-3-((3-(2,6-Dichlorophenyl)-5-isopropylisoxazol-4-yl)methoxy)-8-hydroxybicyclo[3.2.1]octan-8-yl)-4-fluorobenzo[d]thiazole-6-carboxylic acid] | 0.00062 | 0.0037
4 | O=C(O)c1cc(F)c2nc([C@]3(O)[C@@H]4CC[C@H]3CC(OCc3c(-c5c(Cl)cccc5Cl)noc3C3CC3)(C(F)F)C4)sc2c1 (single isomer, unassigned) [Example 11-40] | 0.29 | 0.42
5 | O=C(O)c1ccc2nc([C@]3(O)CC[C@H](OCc4c(C5CCC(F)(F)CC5)noc4C4CC4)CC3)sc2c1 [Example 11-2, 2-((1r,4r)-4-((5-Cyclopropyl-3-(4,4-difluorocyclohexyl)isoxazol-4-yl)methoxy)-1-hydroxycyclohexyl)benzo[d]thiazole-6-carboxylic acid] | > 3 | 8.6
6 | O=C(O)Cc1csc([C@]2(O)[C@@H]3CC[C@H]2C[C@H](OCc2c(-c4c(Cl)cccc4Cl)noc2C2CC2)C3)n1 [Example 46, 2-(2-((1R,3s,5S,8r)-3-((5-Cyclopropyl-3-(2,6-dichlorophenyl)isoxazol-4-yl)methoxy)-8-hydroxybicyclo[3.2.1]octan-8-yl)thiazol-4-yl)acetic acid] | 0.26 | 0.042
7 | O=C(O)c1ccc2nc([C@@]3(O)[C@@H]4CC5C[C@H]3C[C@](OCc3c(-c6c(Cl)cccc6Cl)noc3C3CC3)(C5)C4)sc2c1 [Example 11-35, 2-((1R,2r,3S,5s,7s)-5-((5-Cyclopropyl-3-(2,6-dichlorophenyl)isoxazol-4-yl)methoxy)-2-hydroxyadamantan-2-yl)benzo[d]thiazole-6-carboxylic acid] | 0.0052 | 0.0096
8 | O=C(O)c1cc(F)c2nc([C@]3(O)[C@@H]4CC[C@H]3C[C@H](OCc3c(-c5ccccc5OC(F)F)noc3C3CC3)C4)sc2c1 [Example 11-28, 2-((1R,3s,5S,8r)-3-((5-Cyclopropyl-3-(2-(difluoromethoxy)phenyl)isoxazol-4-yl)methoxy)-8-hydroxybicyclo[3.2.1]octan-8-yl)-4-fluorobenzo[d]thiazole-6-carboxylic acid] | 0.017 | 0.0097
9 | O=C(O)C1(Oc2cc(F)cc([C@]3(O)[C@@H]4CC[C@H]3C[C@H](OCc3c(-c5c(Cl)cccc5Cl)noc3C3CC3)C4)c2)CC1 [Example 14-3, 1-(3-((1R,3s,5S,8r)-3-((5-Cyclopropyl-3-(2,6-dichlorophenyl)isoxazol-4-yl)methoxy)-8-hydroxybicyclo[3.2.1]octan-8-yl)-5-fluorophenoxy)cyclopropanecarboxylic acid] | 0.52 | 0.041
